# Laboratory results: PMC6588349 (eLife, 2019)
# Key:
# [1] = target: T1, SNAP-mGluR2 (full-length) (Rattus norvegicus, UniProt P31421); assay: Inter-LBD FRET assay with full-length SNAP-mGluR2; assay type: cell-based; conditions: drug applied alone, saturating concentrations
# T1 construct: HEK 293T cells expressing full-length mGluR2; expressed in transfected cells; host or cells: HEK 293T
# Source text: We next sought to further probe the variation in PAM-induced inter-TMD FRET changes. […] We used an inter-LBD FRET assay to assess the relative strength of allosteric modulation by different mGluR2 PAMs. Agonists induce a decrease in FRET between fluorophore-conjugated N-terminal SNAP- and CLIP-tags (Figure 4E). […] We tested this effect for all PAMs by applying a saturating concentration of DCG-IV followed by co-application of a saturating concentration of each PAM, which produced further FRET decreases (Figure 4F,G).
# (§1) Fluorophores were diluted in EX solution, which was also used to wash coverslips following labeling and prior to mounting on the microscope. After labeling, cells were mounted on an inverted microscope (Olympus IX73) and imaged with a 60x objective. […] Clusters of cells were analyzed together using ImageJ and FRET was calculated as FRET=(IAcceptor)/(IDonor +IAcceptor) where I is fluorescence intensity. No corrections were made for bleed-through between channels or the contribution of donor-donor or acceptor-acceptor dimers as analysis was limited to relative FRET changes between drug treatments rather than absolute FRET values. […] FRET changes calculated for dose–response curves were normalized to the response to saturating […] applied within the same recording and dose–response curves were obtained from multiple cell clusters and averaged from at least three separate experiments. Dose–response curves were fit using Prism (Graphpad). All drugs were purchased from Tocris, prepared in EX solution, and delivered with a gravity-driven perfusion system. For kinetics measurements a pressurized perfusion system (Automate Scientific) was used to produce a flow rate of 0.5 mL/s. Kinetic analysis was performed in Microsoft Excel. The time between 10% and 90% FRET increase or decrease was determined manually. For photo-bleaching/donor-recovery experiments, images were taken in donor and acceptor channels at baseline and again followed by a 1 min exposure to 640 nm laser illumination at maximum intensity. All experiments were performed at room temperature. All data were produced from at least two separate transfections for each condition.
# SNAP-mGluR2 = target: T2, SNAP-mGluR2 (Rattus norvegicus, UniProt P31421); assay: Single-molecule pulldown (SiMPull) photobleaching step counting, full-length SNAP-mGluR2; conditions: saturating (1 mM) glutamate
# T2 construct: HEK 293T cells expressing full-length mGluR2; expressed in transfected cells; host or cells: HEK 293T
# Procedure: To restrict our analysis to surface-targeted receptors, we expressed N-terminally SNAP-tagged receptor variants and labeled them with membrane-impermeable fluorophores.
# To test this, we incubated SNAP-mGluR2-TMD expressing cells and lysates with PAMs or NAMs during the SiMPull experiment.
# Briefly, to prevent non-specific sticking of proteins, flow chambers were prepared with mPEG-passivated glass slides and coverslips doped with ~1% biotinylated mPEG, as previously described. Prior to each experiment, chambers were incubated with 0.2 mg/mL NeutrAvidin (ThermoFisher) for 2 min followed by 10 nM of a biotinylated anti-HA antibody (abcam ab26228) for 20–30 min. After each conjugation step, the chambers were washed with T50 buffer (50 mM NaCl, 10 mM Tris, pH 7.5).
# After labeling, cells were dissociated from coverslips by incubating with Ca^2+-free PBS for 20 min followed by gentle pipetting. […] Following 1 hr of lysis at 4°C, cells were centrifuged at 16,000 g for 20 min before the supernatant was collected and maintained on ice. The cell lysate was diluted in a 0.1% detergent dilution buffer to obtain sparse immobilization of labeled protein on the passivated slide. […]
# Single molecules were imaged with a 100x objective on an inverted microscope (Olympus IX73) in total internal reflection fluorescence (TIRF) mode. […]
# [2] = target: T3, full-length mGluR2 (SNAP-mGluR2) (Rattus norvegicus, UniProt P31421); assay: GIRK activation assay, whole cell patch clamp, HEK 293T cells expressing full-length mGluR2; assay type: cell-based; conditions: for EC50: read-out: GIRK activation EC50
# T3 construct: HEK 293T cells expressing full-length mGluR2; expressed in transfected cells; host or cells: HEK 293T
# Procedure: Cells were cultured in DMEM with 5% FBS on poly-L-lysine-coated glass coverslips. DNA plasmids were transfected into cells using Lipofectamine 3000 (Thermo Fisher). […] For single-molecule pulldown (SiMPull) experiments, cells were transfected with 0.7 μg DNA of HA and SNAP-tagged receptor constructs, unless otherwise noted.
# Whole-cell patch clamp recordings from single isolated cells were performed 24–36 hr after transfection in a high-potassium extracellular solution containing (in mM): 120 KCl, 29 NaCl, 1 MgCl2, 2 CaCl2 and 10 HEPES, pH 7.4. Cells were voltage clamped to −60 mV using an Axopatch 200B amplifier (Axon Instruments) and membrane currents were recorded. Glass pipettes of resistance between 3 and 8 MΩ were filled with intracellular solution containing (in mM): 140 KCl, 10 HEPES, 3 Na2ATP, 0.2 Na2GTP, 5 EGTA and 3 MgCl2, pH 7.4. Data were acquired with a 2 kHz acquisition rate and filtered with the amplifier 4-pole Bessel filter at 1 kHz. Drugs were prepared in extracellular solution and applied using a gravity-driven perfusion system. Data were analyzed with Clampfit (Molecular Devices) and Prism (GraphPad). Data for all conditions came from at least two separate transfections.
# SNAP-mGluR2-TMD = target: T4, SNAP-mGluR2-TMD (Rattus norvegicus, UniProt P31421); assay: Inter-TMD FRET assay in living HEK 293T cells; assay type: cell-based; conditions: for EC50: SNAP-mGluR2-TMD labeled with donor and acceptor, normalized to saturating LY48, mean ± s.e.m., read-out: inter-TMD FRET increase EC50
# T4 construct: mGluR2-TMD (rat) starts at Q558; expressed in transfected cells; host or cells: HEK 293T
# Source text: We therefore sought to develop a FRET sensor that reports on activation-associated motions driven by allosteric drugs and hypothesized that an N-terminal fluorophore on the isolated TMD should report on any inter-TMD rearrangement while allowing the receptor to maintain G-protein coupling (Figure 3A). […] To test if LBD-independent inter-TMD rearrangement is a feature of other mGluRs, we asked if donor and acceptor conjugation to SNAP-mGluR5-TMD would allow for the detection a FRET response to a PAM.
# Cells were cultured in DMEM with 5% FBS on poly-L-lysine-coated glass coverslips. DNA plasmids were transfected into cells using Lipofectamine 3000 (Thermo Fisher). […] For single-molecule pulldown (SiMPull) experiments, cells were transfected with 0.7 μg DNA of HA and SNAP-tagged receptor constructs, unless otherwise noted. For FRET experiments, cells were transfected with either SNAP-tagged constructs at 0.5–0.7 μg of DNA/well or SNAP and CLIP-tagged constructs at a ratio of 1:2 with 0.3 μg of SNAP DNA/well.
# as §1
# [3] = Gramicidin-based fluorescence quench assay for changes of lipid bilayer properties (LUVs); assay type: physicochemical; conditions: 1 to 10 µM
# Source text: To further probe this, we used a fluorescence quench assay for drug-induced changes of lipid bilayer properties ([Ingólfsson and Andersen, 2010]) (Figure 6—figure supplement 3A; see Materials and methods), in which changes in gramicidin channel function is used as a reporter of membrane modification. […] The persistent BINA response is thus consistent with a model where BINA readily partitions into the plasma membrane lipid bilayer (and possibly other lipidic compartments).
# The gramicidin-based fluorescence assay has been described previously ([Ingólfsson and Andersen, 2010]). In brief, large unilamellar vesicles (LUVs), loaded with intravesicular ANTS were prepared from DC22:1PC and gramicidin (weight ratio 1000:1, corresponding to a ~ 2000:1 molar ratio) using freeze-drying, extrusion and size-exclusion chromatography; the final lipid concentration was 4–5 mM; the suspension was stored in the dark at 12.5°C for a maximum of 7 days. […] Before use, the LUV-ANTS stock was diluted to 200–250 μM lipid with NaNO3 buffer (140 mM NaNO3, 10 mM HEPES, pH 7).
# The NAMs and PAMs (dissolved in DMSO) or DMSO (as control) were added to a LUV-ANTS sample and equilibrated at 25°C in the dark for 10 min. before the mixture was loaded into a stopped-flow spectrofluorometer (Applied Photophysics SX.20, Leatherhead, UK) and mixed with either NaNO3 buffer or TlNO3 buffer; Tl^+ (thallous ion) is a gramicidin channel-permeant quencher of the ANTS fluorescence. Samples were excited at 352 nm and the fluorescence signal above 455 nm was recorded in the absence (four successive trials) or presence (nine successive trials) of the quencher. All the NAM and PAM derivatives fluoresce to varying degrees and addition of these drugs to LUVs in control experiments without gA or Tl^+ increased the fluorescence signal, and each signal was normalized to account for the compound's fluorescence. […] The quench rate (Rate), the rate of Tl^+ influx, was determined at 2 ms: Rate=β/τ0⋅(t/τ0)^β−1|2ms […]
# SNAP-mGluR5-TMD = SNAP-mGluR5-TMD (Homo sapiens, UniProt P41594); assay: Inter-TMD FRET assay with SNAP-mGluR5-TMD; assay type: cell-based, H. sapiens; conditions: mGluR5 PAM applied alone
# SNAP-mGluR5-TMD, sequence (P41594 570-876 limits assumed): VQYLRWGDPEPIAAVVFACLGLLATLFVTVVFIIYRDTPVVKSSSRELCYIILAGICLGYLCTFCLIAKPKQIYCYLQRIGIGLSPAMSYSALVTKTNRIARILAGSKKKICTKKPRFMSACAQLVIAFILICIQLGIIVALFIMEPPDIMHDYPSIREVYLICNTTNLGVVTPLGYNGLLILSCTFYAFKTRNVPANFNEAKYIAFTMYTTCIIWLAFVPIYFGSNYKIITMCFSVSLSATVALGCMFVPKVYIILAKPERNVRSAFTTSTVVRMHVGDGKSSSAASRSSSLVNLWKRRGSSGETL
# T3 sequence (P31421 19-872): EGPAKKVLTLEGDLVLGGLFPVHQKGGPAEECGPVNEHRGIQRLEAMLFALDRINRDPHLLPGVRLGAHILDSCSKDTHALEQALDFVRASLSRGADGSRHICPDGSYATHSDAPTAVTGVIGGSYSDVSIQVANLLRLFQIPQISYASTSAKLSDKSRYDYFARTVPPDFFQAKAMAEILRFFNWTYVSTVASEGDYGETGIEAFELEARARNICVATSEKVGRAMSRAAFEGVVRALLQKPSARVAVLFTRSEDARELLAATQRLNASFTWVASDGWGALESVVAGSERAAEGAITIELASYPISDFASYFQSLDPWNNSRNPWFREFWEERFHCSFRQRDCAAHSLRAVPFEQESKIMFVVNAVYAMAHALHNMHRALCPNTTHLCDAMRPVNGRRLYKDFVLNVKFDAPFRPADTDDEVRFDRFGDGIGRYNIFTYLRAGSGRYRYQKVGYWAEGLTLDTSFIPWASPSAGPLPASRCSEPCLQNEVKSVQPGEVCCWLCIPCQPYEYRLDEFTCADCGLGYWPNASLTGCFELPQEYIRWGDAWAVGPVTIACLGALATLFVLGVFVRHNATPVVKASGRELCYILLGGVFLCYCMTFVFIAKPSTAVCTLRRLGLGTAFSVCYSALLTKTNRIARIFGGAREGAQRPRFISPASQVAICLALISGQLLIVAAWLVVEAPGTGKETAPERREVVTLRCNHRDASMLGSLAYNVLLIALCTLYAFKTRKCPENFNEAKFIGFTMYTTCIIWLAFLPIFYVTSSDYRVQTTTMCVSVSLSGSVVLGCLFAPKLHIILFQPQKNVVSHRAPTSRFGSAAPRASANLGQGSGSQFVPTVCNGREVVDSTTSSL
# T1 sequence (P31421 19-872): as above
# T4 sequence (P31421 558-872 limits assumed): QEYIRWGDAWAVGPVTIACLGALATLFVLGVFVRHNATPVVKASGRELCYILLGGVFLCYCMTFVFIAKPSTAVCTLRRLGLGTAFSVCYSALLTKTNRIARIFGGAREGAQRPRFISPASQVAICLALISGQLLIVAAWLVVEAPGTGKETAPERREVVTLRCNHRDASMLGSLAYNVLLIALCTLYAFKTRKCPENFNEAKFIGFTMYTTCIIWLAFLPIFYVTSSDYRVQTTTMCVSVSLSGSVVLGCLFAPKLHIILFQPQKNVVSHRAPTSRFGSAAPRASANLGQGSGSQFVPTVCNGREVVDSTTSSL
# T2 sequence (P31421 19-872): as the sequence (P31421 19-872) above
structure (smiles),measurement,setting,value
N[C@@H](CCC(=O)O)C(=O)O [Glutamate],direct effect on inter-LBD FRET (no orthosteric agonist for modulators),[1],large FRET decrease
same,two-step bleaching events of SNAP-mGluR2 with glutamate,SNAP-mGluR2,~ 60%
same,GIRK current time 10% to 90%,"[2]; saturating: 10 µM LY48, 1 mM Glutamate",1.9 ± 0.5 s
Cc1c(C(N)=O)nc2n1C[C@@H](COc1ccc(C(C)(C)C)cc1)O2 [TASP],direct effect on inter-LBD FRET (no orthosteric agonist for modulators),[1],no FRET response
same,EC50,[2],0.38 ± 0.11 µM
same,EC50,SNAP-mGluR2-TMD,0.9 ± 0.1 µM
same,inter-TMD FRET response onset,SNAP-mGluR2-TMD; saturating concentrations,10 to 40 s
same,inter-TMD FRET response reversal,SNAP-mGluR2-TMD; saturating concentrations,< 2 min
same,maximum inter-TMD FRET increase relative to LY48,"SNAP-mGluR2-TMD; saturating concentrations, compared to saturating LY48",~ 1.3 times that of LY48
Cc1c(OCc2cccc(-c3ccc(C(=O)O)cc3)c2)cc2c(c1C)C(=O)C(C1CCCC1)C2 (stereo not drawn) [BINA],changes in gramicidin channel function (membrane properties),[3],greatest changes in gramicidin channel function
CCS(=O)(=O)N(Cc1cccnc1)c1cccc(-c2ccc(C#N)cc2)c1 [CBiPES],direct effect on inter-LBD FRET (no orthosteric agonist for modulators),[1],no FRET response
same,EC50,[2],0.46 ± 0.2 µM
same,inter-TMD FRET kinetics relative to LY48,SNAP-mGluR2-TMD,substantially faster ON and OFF kinetics
same,EC50,SNAP-mGluR2-TMD,3.5 ± 0.2 µM
same,inter-TMD FRET response onset,SNAP-mGluR2-TMD; saturating concentrations,10 to 40 s
same,inter-TMD FRET response reversal,SNAP-mGluR2-TMD; saturating concentrations,< 2 min
O=C(NC1CCC1)c1ccc(C#Cc2cccc(F)c2)nc1 [VU0360172],inter-TMD FRET response of SNAP-mGluR5-TMD,SNAP-mGluR5-TMD,reversible FRET response
"O=C(O)c1cc(O)c2cccc(O)c2n1 [XA, Xanthurenic acid]",inter-TMD FRET response to drug alone,"SNAP-mGluR2-TMD; drug applied alone, XA up to 50 µM",neither inter-TMD FRET changes
